Results as given in the SangsterLogP compilation.

Assay: method code SF-AS, from DOI: 10.1016/0223-5234(92)90053-4

Compared with O=C(CCCNCCO)Cc1ccccc1, CC(O)CNCCCC(=O)Cc1ccccc1 (configuration not stated) is lower in logP: 3.03 for the first, 2.53 for the second.

Cc1cc(C)c(C(=O)CCCNCCO)c(C)c1 and Cc1ccsc1C(=O)CCCNCCO are within 0.2 log units of each other in logP: 3.16 for the first, 3 for the second.

First: O=C(CCCNCCO)c1cccs1
Second: NCCNCCCC(=O)c1cccs1
The logP of the first is higher: 2.89 for the first, 2.58 for the second.

First: CC(O)CNCCCC(=O)c1ccccc1 (configuration not stated)
Second: O=C(CCCNCCO)c1ccccc1
The logP of the first is higher: 3.28 for the first, 2.41 for the second.

First: CN(CCO)CCCC(=O)c1cccs1
Second: CN(CCO)CCCC(=O)c1ccccc1
The logP of the first is higher: 3.29 for the first, 2.4 for the second.

Compared with CCc1ccccc1C(=O)CCCNCCO, Cc1ccccc1C(=O)CCCNCCO is lower in logP: 3.85 for the first, 3.61 for the second.

Compared with CCN(CC)CCCC(=O)c1ccccc1, NCCNCCCC(=O)c1ccccc1 is lower in logP: 3.79 for the first, 2.74 for the second.

First: O=C(CCCNCCO)C1CCCCC1
Second: CC(O)CNCCCC(=O)c1cccs1 (configuration not stated)
The logP of the first is higher: 3.96 for the first, 2.73 for the second.

Molecule CN(CCO)CCCC(=O)Cc1ccccc1 has a logP of 3.07.
